Source: patent US11142515B2, “Pyrazolyl-ureas as kinase inhibitors” (RESPIVERT LIMITED, priority 2014, dated 2021)
pIC50: −log10 of the molar value.

Key:
[1] = target: T1, p38 MAPKα isoform (MAPK14) (Homo sapiens, UniProt Q16539); experiment: p38 MAPKα enzyme inhibition (Z-LYTE FRET); format: biochemical; settings: Table 2B, unit inferred; read-out: p38 MAPKα (Enzyme Profile)
T1 construct: purchased Life Technologies
Outline: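 Activity was measured indirectly as phosphorylation of a MAPKAP-K2-derived FRET peptide. Enzyme (added at 40 ng/mL) was preincubated 2 h at RT with compound (added solutions 40–0.0012 μg/mL).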

p38MAPKγ (MAPK12) = target: T2, p38MAPKγ (MAPK12) (Homo sapiens, UniProt P53778); experiment: p38 MAPKγ enzyme inhibition (Z-LYTE FRET); format: biochemical; settings: Table 2B, unit inferred; read-out: p38 MAPKγ (Enzyme Profile)
T2 construct: purchased Life Technologies
T2 sequence (P53778 1-367): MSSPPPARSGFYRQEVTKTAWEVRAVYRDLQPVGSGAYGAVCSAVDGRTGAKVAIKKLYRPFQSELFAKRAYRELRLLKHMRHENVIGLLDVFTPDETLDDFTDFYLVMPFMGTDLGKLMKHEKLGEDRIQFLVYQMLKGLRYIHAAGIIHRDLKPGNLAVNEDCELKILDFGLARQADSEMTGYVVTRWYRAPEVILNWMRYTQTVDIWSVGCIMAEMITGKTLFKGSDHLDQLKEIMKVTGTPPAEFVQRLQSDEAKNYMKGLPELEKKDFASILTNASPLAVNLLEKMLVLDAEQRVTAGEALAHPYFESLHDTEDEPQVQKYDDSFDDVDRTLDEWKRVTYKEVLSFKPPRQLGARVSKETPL
Outline: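 Enzyme (added at 800 ng/mL) was preincubated 2 h at RT with compound (solutions of 40 to 0.0012 μg/mL), then FRET peptide (8 μM) and ATP (400 μM), both as added, were reacted 1 h at RT. Protease development followed for 1 h; phosphorylation was read as the coumarin/fluorescein emission ratio.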

T1 sequence (Q16539 whole entry, canonical isoform): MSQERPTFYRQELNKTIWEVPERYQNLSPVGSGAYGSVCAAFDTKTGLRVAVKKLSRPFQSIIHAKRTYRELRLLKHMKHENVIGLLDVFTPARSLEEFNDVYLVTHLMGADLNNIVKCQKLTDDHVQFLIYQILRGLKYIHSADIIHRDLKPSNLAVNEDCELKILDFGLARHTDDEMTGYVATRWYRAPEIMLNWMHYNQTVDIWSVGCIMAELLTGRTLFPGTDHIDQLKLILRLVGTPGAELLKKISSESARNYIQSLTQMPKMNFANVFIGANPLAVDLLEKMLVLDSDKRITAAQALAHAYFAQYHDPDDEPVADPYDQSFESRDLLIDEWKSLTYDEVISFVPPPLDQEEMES

SMILES | pIC50 [1] | pIC50 (p38MAPKγ (MAPK12))
Cc1ccc(-n2nc(C(C)(C)C)cc2NC(=O)Nc2ccc(OCc3ccnc(Nc4cnc(C(=O)N5C[C@@H](C)O[C@@H](C)C5)cn4)c3)c3ccccc23)cc1 [Example 214, 1-(3-(tert-butyl)-1-(p-tolyl)-1H-pyrazol-5-yl)-3-(4-((2-((5-((2S,6R)-2,6-dimethyl-morpholine-4-carbonyl)pyrazin-2-yl)amino)pyridin-4-yl)methoxy)naphthalen-1-yl)urea] | 7.51 | 5.71
CC(C)(C)c1cc(NC(=O)Nc2ccc(OCc3ccnc(Nc4cnc(C(=O)N5CCCC5)cn4)c3)c3ccccc23)n(-c2ccc(F)cc2)n1 [Example 215, 1-(3-(tert-butyl)-1-(4-fluoro-phenyl)-1H-pyrazol-5-yl)-3-(4-((2-((5-(pyrrolidine-1-carbonyl)pyrazin-2-yl)amino)pyridin-4-yl)methoxy)naphthalen-1-yl)urea] | 7.82 | < 4.84
COc1cccc(-n2nc(C(C)(C)C)cc2NC(=O)Nc2ccc(OCc3ccnc(Nc4cnc(C(=O)N5CCCC5)cn4)c3)c3ccccc23)c1 [Example 216, 1-(3-(tert-butyl)-1-(3-methoxyphenyl)-1H-pyrazol-5-yl)-3-(4-((2-((5-(pyrrolidine-1-carbonyl)pyrazin-2-yl)amino)pyridin-4-yl)methoxy)naphthalen-1-yl)urea] | 7.82 | 6.40
COCc1ccc(-n2nc(C(C)(C)C)cc2NC(=O)Nc2ccc(OCc3ccnc(Nc4cnc(C(=O)N5CCCC5)cn4)c3)c3ccccc23)cc1 [Example 217, 1-(3-(tert-butyl)-1-(4-(methoxymethyl)phenyl)-1H-pyrazol-5-yl)-3-(4-((2-((5-(pyrrolidine-1-carbonyl)pyrazin-2-yl)amino)pyridin-4-yl)methoxy)naphthalen-1-yl)urea] | 7.77 | 6.37
Cc1cc(C)cc(-n2nc(C(C)(C)C)cc2NC(=O)Nc2ccc(OCc3ccnc(Nc4cnc(C(=O)N5CCCC5)cn4)c3)c3ccccc23)c1 [Example 218, 1-(3-(tert-butyl)-1-(3,5-dimethylphenyl)-1H-pyrazol-5-yl)-3-(4-((2-((5-(pyrrolidine-1-carbonyl)pyrazin-2-yl)amino)pyridin-4-yl)methoxy)naphthalen-1-yl)urea] | 7.55 | < 4.85
COc1ccc(-n2nc(C(C)(C)C)cc2NC(=O)Nc2ccc(OCc3ccnc(Nc4cnc(C(=O)N5CCCC5)cn4)c3)c3ccccc23)cn1 [Example 219, 1-(3-(tert-butyl)-1-(6-methoxypyridin-3-yl)-1H-pyrazol-5-yl)-3-(4-((2-((5-(pyrrolidine-1-carbonyl)pyrazin-2-yl)amino)pyridin-4-yl)methoxy)naphthalen-1-yl)urea] | 7.74 | < 4.85
COc1cc(F)cc(-n2nc(C(C)(C)C)cc2NC(=O)Nc2ccc(OCc3ccnc(Nc4cnccn4)c3)c3ccccc23)c1 [Example 220, 1-(3-(tert-butyl)-1-(3-fluoro-5-methoxyphenyl)-1H-pyrazol-5-yl)-3-(4-((2-(pyrazin-2-ylamino)pyridin-4-yl)methoxy)naphthalen-1-yl)urea] | 7.51 | 6.79
CCc1cncc(Nc2cc(COc3ccc(NC(=O)Nc4cc(C(C)(C)C)nn4-c4cc(C)cc(OC)c4)c4ccccc34)ccn2)n1 [Example 221, 1-(3-(tert-butyl)-1-(3-methoxy-5-methylphenyl)-1H-pyrazol-5-yl)-3-(4-((2-((6-ethylpyrazin-2-yl)amino)pyridin-4-yl)methoxy)naphthalen-1-yl)urea] | 7.09 | 5.90
CCc1cncc(Nc2cc(COc3ccc(NC(=O)Nc4cc(C(C)(C)C)nn4-c4cccc(COC)c4)c4ccccc34)ccn2)n1 [Example 222, 1-(3-(tert-butyl)-1-(3-(methoxymethyl)phenyl)-1H-pyrazol-5-yl)-3-(4-((2-((6-ethylpyrazin-2-yl)amino)pyridin-4-yl)methoxy)naphthalen-1-yl)urea] | 7.64 | 6.76
Cc1ccc(-n2nc(C(C)(C)C)cc2NC(=O)Nc2ccc(OCc3ccnc(Nc4cnc(C(=O)N(C)CCCO)cn4)c3)c3ccccc23)cc1 [Example 223, 5-((4-(((4-(3-(3-(tert-butyl)-1-(p-tolyl)-1H-pyrazol-5-yl)ureido)naphthalen-1-yl)oxy)methyl)pyridin-2-yl)amino)-N-(3-hydroxypropyl)-N-methylpyrazine-2-carboxamide] | 7.96 | 6.99
COC1CN(C(=O)c2cnc(Nc3cc(COc4ccc(NC(=O)Nc5cc(C(C)(C)C)nn5-c5cccc(C)c5)c5ccccc45)ccn3)cn2)C1 [Example 224, 1-(3-(tert-butyl)-1-(m-tolyl)-1H-pyrazol-5-yl)-3-(4-((2-((5-(3-methoxyazetidine-1-carbonyl)pyrazin-2-yl)amino)pyridin-4-yl)methoxy)naphthalen-1-yl)urea] | 7.27 | < 4.85
COCC1CN(C(=O)c2cnc(Nc3cc(COc4ccc(NC(=O)Nc5cc(C(C)(C)C)nn5-c5ccc(C)cc5)c5ccccc45)ccn3)cn2)C1 [Example 225, 1-(3-(tert-butyl)-1-(p-tolyl)-1H-pyrazol-5-yl)-3-(4-((2-((5-(3-(methoxymethyl)azetidine-l-carbonyl)pyrazin-2-yl)amino)pyridin-4-yl)methoxy)naphthalen-1-yl)urea] | 7.85 | 6.47
COc1cc(-n2nc(C(C)(C)C)cc2NC(=O)Nc2ccc(OCc3ccnc(Nc4cnc(C(=O)N5CCCC5)cn4)c3)c3ccccc23)ccc1C [Example 226, 1-(3-(tert-butyl)-1-(3-methoxy-4-methylphenyl)-1H-pyrazol-5-yl)-3-(4-((2-((5-(pyrrolidine-1-carbonyl)pyrazin-2-yl)amino)pyridin-4-yl)methoxy)naphthalen-1-yl)urea] | 7.46 | < 4.86
COc1cc(C)cc(-n2nc(C(C)(C)C)cc2NC(=O)Nc2ccc(OCc3ccnc(Nc4cnc(C(=O)N5CCCC5)cn4)c3)c3ccccc23)c1 [Example 227, 1-(3-(tert-butyl)-1-(3-methoxy-5-methylphenyl)-1H-pyrazol-5-yl)-3-(4-((2-((5-(pyrrolidine-1-carbonyl)pyrazin-2-yl)amino)pyridin-4-yl)methoxy)naphthalen-1-yl)urea] | 7.37 | < 4.86
COc1ccc(-n2nc(C(C)(C)C)cc2NC(=O)Nc2ccc(OCc3ccnc(Nc4cnc(C(=O)N5CCCC5)cn4)c3)c3ccccc23)cc1F [Example 228, 1-(3-(tert-butyl)-1-(3-fluoro-4-methoxyphenyl)-1H-pyrazol-5-yl)-3-(4-((2-((5-(pyrrolidine-1-carbonyl)pyrazin-2-yl)amino)pyridin-4-yl)methoxy)naphthalen-1-yl)urea] | 7.46 | < 4.86
CCc1ccc(-n2nc(C(C)(C)C)cc2NC(=O)Nc2ccc(OCc3ccnc(Nc4cnc(C(=O)N5CCCC5)cn4)c3)c3ccccc23)cc1 [Example 229, 1-(3-(tert-butyl)-1-(4-ethyl-phenyl)-1H-pyrazol-5-yl)-3-(4-((2-((5-(pyrrolidine-1-carbonyl)pyrazin-2-yl)amino)pyridin-4-yl)methoxy)naphthalen-1-yl)urea] | 7.57 | < 4.85
CCc1cccc(-n2nc(C(C)(C)C)cc2NC(=O)Nc2ccc(OCc3ccnc(Nc4cnc(C(=O)N5CCCC5)cn4)c3)c3ccccc23)c1 [Example 230, 1-(3-(tert-butyl)-1-(3-ethyl-phenyl)-1H-pyrazol-5-yl)-3-(4-((2-((5-(pyrrolidine-1-carbonyl)pyrazin-2-yl)amino)pyridin-4-yl)methoxy)naphthalen-1-yl)urea] | 7.37 | < 4.85
Cc1cccc(-n2nc(C(C)(C)C)cc2NC(=O)Nc2ccc(OCc3ccnc(Nc4cnc(C(=O)NCCCO)cn4)c3)c3ccccc23)c1 [Example 231, 5-((4-(((4-(3-(3-(tert-butyl)-1-(m-tolyl)-1H-pyrazol-5-yl)ureido)naphthalen-1-yl)oxy)methyl)pyridin-2-yl)amino)-N-(3-hydroxypropyl) pyrazine-2-carboxamide] | 7.82 | 7.02
Cc1ccc(-n2nc(C(C)(C)C)cc2NC(=O)Nc2ccc(OCc3ccnc(Nc4cnc(C(=O)N5CCC[C@H](O)C5)cn4)c3)c3ccccc23)cc1 [Example 232, (S)-1-(3-(tert-butyl)-1-(p-tolyl)-1H-pyrazol-5-yl)-3-(4-((2-((5-(3-hydroxypiperidine-1-carbonyl)pyrazin-2-yl)amino)pyridin-4-yl)methoxy)naphthalen-1-yl)urea] | 7.74 | 6.93
Cc1ccc(-n2nc(C(C)(C)C)cc2NC(=O)Nc2ccc(OCc3ccnc(Nc4cnc(C(=O)N5CCC[C@@H](O)C5)cn4)c3)c3ccccc23)cc1 [Example 233, (R)-1-(3-(tert-butyl)-1-(p-tolyl)-1H-pyrazol-5-yl)-3-(4-((2-((5-(3-hydroxypiperidine-1-carbonyl)pyrazin-2-yl)amino)pyridin-4-yl)methoxy)naphthalen-1-yl)urea] | 8.03 | 7.01
